According to patent publication US11786534B2 (TAIHO PHARMACEUTICAL CO., LTD., priority 2019, dated 2023):

Tests used:
Type in all cases: biochemical
[1] = target: T1, human EGFR (d746-750/T790M/C797S) (Homo sapiens, UniProt P00533, C797S/DEL746-750/T790M); assay: Inhibitory activity against EGFR (d746-750/T790M/C797S) kinase; conditions: Test Example 1, Table 2; ATP 6 μM, 25° C., 120 minutes
T1 construct: made in house; host or cells: Sf9 insect cells, baculovirus
Method: 1) Measurement of inhibitory activity against EGFR (d746-750/T790M/C797S) kinase
The compounds of the above examples and comparative examples were measured for their inhibitory activity against EGFR (d746-750/T790M/C797S) kinase activity. Among the materials required for measurement of this inhibitory activity, the kinase protein (SEQ ID NO: 1) used was prepared as follows: the cytoplasmic domain of human EGFR (d746-750/T790M/C797S) fused at the ammo terminal end with a glutathione-S-transferase (GST) tag was expressed M insect cells (Sf9) by the baculovirus expression system and then purified an a glutathione sepharose column. For use as a substrate peptide, a peptide biotinylated at the N-terminal end (biotin -EEPLYWSFPAKKK) was synthesized by reference to Perkin Elmer LabChip® series reagent FL-Peptide 22.
Procedures for measurement of the inhibitory activity are as follows. First, the compounds of the present invention were each dissolved in dimethyl sulfoxide (DMSO), and their serial dilutions were then prepared with DMSO. Secondly, each compound serial dilution (final concentration of DMSO during kinase reaction: 2.5%) or DMSO (final concentration: 2.5%) was mixed with a solution containing the substrate peptide (final concentration: 250 nM), magnesium chloride (final concentration: 10 mM), manganese chloride (final concentration: 10 mM) and ATP (final concentration: 6 μM) in a kinase reaction buffer (Carna Biosciences Inc., Japan), and the EGFR (d746-750/T790M/C797S) protein was further added thereto, followed by incubation at 25° C. for 120 minutes to cause kinase reaction. To the reaction solution, EDTA was added to give a final concentration of 24 mM to thereby stop the reaction, followed by addition of a phospholylated tyrosine detection solution containing europium-labeled anti-phosphorylated tyrosine antibody PT66 (Perkin Elmer) and SureLight APC-SA (Perkin Elmer). The reaction solution was allowed to stand at room temperature for 2 hours or longer. As a background, DMSO was used instead of each compound solution in .DMSO, and EDIA was added prior to the addition of the EGFR EGFR (d746-750/T790M/C797S) protein, followed by incubation at 25° C. for 120 minutes. The same detection solution was also added to this reaction solution, which was then allowed to stand for 2 hours or longer. Finally, all the test samples were measured with a PHERAstar FS reader (BMG LABTECH) for their fluorescence intensity at two wavelengths of 620 nm and 665 nm upon irradiation with an excitation light of 337 nm wavelength, and the ratio of fluorescence intensities at these two wavelengths was obtained as data for each compound.
Moreover, as control compounds, the above Comparative Example A (Example 3 in WO2013/118817) and Comparative Example B (Example 35 in WO2013/118817) known to have EGFR inhibitory activity were used.
In accordance with the same procedures as shown in 1) in Test Example 1, the compounds of the above examples were measured for their inhibitory activity against EGFR (d746-750/T790M/C797S) kinase activity.

[2] = target: T2, human EGFR (L858R/T790M/C797S) (Homo sapiens, UniProt P00533, C797S/L858R/T790M); assay: Inhibitory activity against EGFR (L858R/T790M/C797S) kinase; conditions: Test Example 1, Table 3; ATP 0.5 μM
T2 construct: made in house; host or cells: Sf9 insect cells, baculovirus
T2 sequence (P00533 with tags, fused parts or gaps T790M/C797S/L858R): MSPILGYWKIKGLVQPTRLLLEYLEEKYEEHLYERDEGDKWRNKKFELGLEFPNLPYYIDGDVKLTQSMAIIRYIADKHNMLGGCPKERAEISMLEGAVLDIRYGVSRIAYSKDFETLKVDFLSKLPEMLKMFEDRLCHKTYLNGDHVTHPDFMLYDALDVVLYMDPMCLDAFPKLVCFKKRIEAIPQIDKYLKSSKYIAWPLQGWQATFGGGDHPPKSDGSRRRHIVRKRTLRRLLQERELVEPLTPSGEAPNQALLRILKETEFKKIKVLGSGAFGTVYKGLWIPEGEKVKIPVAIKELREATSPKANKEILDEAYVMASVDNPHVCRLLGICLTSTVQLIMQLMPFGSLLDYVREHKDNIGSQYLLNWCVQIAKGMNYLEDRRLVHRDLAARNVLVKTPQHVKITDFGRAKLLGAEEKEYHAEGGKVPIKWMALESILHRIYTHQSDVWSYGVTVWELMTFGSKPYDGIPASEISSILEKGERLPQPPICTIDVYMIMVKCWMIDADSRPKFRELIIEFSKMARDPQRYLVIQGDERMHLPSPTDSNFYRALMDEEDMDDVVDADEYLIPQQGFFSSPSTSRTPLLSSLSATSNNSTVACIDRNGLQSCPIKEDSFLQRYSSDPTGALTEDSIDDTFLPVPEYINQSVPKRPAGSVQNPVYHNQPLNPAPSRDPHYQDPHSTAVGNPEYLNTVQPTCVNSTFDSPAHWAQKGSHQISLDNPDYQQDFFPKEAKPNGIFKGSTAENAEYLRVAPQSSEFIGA
Method: 2) Measurement of inhibitory activity against EGFR (L858R/T790M/C797S) kinase
The compounds of the presein invention were measured for their inhibitory activity against EGFR (L858R/T790M/C797S) kinase activity.
The materials, measurement procedures and data analysis method used in this test are substantially the same as those shown in the section “Measurement of inhibitory activity against EGFR (d746-750/T790M/C797S) kinase.” However, among the materials, the kinase protein (SEQ ID NO: 2) used was prepared as follows: the cytoplasmic domain of human EGFR (L858R/T790M/C797S) fused at the amino terminal end with a GST tag was expressed in insect cells (Sf9) by the baculovirus expression system and then purified on a glutathione sepharose column. In the measurement procedures, the final concentration of ATP was set to 0.5 μM. Finally, data analysis was conducted to determine the IC50 value (nM) of each compound against EGFR (L858R/T790M/C797S).
In accordance with the same procedures as shown in 2) in Test Example 1, the compounds of the present invention were measured for their inhibitory activity against EGFR (L858R/T790M/C797S) kinase activity.

[3] = target: T3, human EGFR (d746-750/C797S) (Homo sapiens, UniProt P00533, C797S/DEL746-750); assay: Inhibitory activity against EGFR (d746-750/C797S) kinase; conditions: Test Example 1, Table 4; ATP 14 μM, 60 minutes
T3 construct: purchased SignalChem
T3 sequence (P00533 with tags, fused parts or gaps DEL746-750/C797S): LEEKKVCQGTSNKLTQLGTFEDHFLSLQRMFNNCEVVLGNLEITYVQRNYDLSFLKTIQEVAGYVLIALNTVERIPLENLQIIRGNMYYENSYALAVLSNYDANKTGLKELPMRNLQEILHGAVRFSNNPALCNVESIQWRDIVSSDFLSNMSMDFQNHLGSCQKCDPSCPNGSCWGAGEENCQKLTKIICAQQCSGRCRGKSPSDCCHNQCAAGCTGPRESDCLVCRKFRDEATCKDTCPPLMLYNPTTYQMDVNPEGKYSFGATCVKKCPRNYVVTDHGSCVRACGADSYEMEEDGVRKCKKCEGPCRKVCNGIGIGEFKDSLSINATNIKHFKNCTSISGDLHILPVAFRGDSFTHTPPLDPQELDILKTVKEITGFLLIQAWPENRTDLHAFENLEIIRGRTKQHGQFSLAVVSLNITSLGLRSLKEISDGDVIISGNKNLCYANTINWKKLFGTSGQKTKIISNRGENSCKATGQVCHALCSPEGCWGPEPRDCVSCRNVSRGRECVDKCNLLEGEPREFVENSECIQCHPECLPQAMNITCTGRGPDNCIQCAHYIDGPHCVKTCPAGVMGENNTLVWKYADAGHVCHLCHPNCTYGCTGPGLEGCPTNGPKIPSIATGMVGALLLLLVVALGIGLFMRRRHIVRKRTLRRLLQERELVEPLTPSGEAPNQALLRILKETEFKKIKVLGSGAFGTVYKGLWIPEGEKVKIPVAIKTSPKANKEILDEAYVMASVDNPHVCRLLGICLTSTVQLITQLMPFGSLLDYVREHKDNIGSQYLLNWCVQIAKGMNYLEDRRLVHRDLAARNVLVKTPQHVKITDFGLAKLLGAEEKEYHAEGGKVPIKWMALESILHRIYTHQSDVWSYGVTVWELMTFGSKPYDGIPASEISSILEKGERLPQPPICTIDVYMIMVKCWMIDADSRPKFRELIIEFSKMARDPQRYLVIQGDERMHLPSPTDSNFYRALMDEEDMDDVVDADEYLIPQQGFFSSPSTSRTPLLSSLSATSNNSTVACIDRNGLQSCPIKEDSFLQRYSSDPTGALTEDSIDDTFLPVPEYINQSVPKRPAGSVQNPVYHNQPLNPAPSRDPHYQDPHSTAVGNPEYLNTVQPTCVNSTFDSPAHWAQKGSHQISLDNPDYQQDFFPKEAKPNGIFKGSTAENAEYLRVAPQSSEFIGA
Method: 3) Measurement of inhibitory activity against EGFR (d746-750/C797S) kinase
The compounds of the present invention were measured for their inhibitory activity against EGFR (d746-750/C797S) kinase activity.
The materials, measurement procedures and data analysis method used in this test are substantially the same as those shown in the section “Measurement of inhibitory activity aiainst EGFR (d746-750/T790M/C797S) kinase.” However, among the materials, the kinase protein used was a purified recombinant human EGFR (d746-750/C797S) protein purchased from SignalChem, while the kinase reaction buffer used was 13.5 mM Tris (pH 7.5) containing 2 mM dithiothreitol and 0.009% Tween-20. In the measurement procedures, the final concentration of ATP was set to 14 μM, the final concentration of maganesium chloride was set to 20 mM, the final concentration of manganese chloride was set to 12.5 mM, the incubation time for kinase reaction was set to 60 minutes, and the final concentration of EDTA used to stop the kinase reaction was set to 40 mM. Finally, data analysis was conducted to determine to IC50 value (nM) of each compound against EGFR (d746-750/C797S).
In accordance with the same procedures as shown in 3) in Test Example 1, the compounds of the present invention were measured for their inhibitory activity against EGFR (d746-750/C797S) kinase activity.

human EGFR (L858R/C797S) = target: T4, human EGFR (L858R/C797S) (Homo sapiens, UniProt P00533, C797S/L858R); assay: Inhibitory activity against EGFR (L858R/C797S) kinase; conditions: Test Example 1, Table 5; ATP 4 μM, 90 minutes
T4 construct: purchased SignalChem
T4 sequence (P00533 25-1210 C797S/L858R): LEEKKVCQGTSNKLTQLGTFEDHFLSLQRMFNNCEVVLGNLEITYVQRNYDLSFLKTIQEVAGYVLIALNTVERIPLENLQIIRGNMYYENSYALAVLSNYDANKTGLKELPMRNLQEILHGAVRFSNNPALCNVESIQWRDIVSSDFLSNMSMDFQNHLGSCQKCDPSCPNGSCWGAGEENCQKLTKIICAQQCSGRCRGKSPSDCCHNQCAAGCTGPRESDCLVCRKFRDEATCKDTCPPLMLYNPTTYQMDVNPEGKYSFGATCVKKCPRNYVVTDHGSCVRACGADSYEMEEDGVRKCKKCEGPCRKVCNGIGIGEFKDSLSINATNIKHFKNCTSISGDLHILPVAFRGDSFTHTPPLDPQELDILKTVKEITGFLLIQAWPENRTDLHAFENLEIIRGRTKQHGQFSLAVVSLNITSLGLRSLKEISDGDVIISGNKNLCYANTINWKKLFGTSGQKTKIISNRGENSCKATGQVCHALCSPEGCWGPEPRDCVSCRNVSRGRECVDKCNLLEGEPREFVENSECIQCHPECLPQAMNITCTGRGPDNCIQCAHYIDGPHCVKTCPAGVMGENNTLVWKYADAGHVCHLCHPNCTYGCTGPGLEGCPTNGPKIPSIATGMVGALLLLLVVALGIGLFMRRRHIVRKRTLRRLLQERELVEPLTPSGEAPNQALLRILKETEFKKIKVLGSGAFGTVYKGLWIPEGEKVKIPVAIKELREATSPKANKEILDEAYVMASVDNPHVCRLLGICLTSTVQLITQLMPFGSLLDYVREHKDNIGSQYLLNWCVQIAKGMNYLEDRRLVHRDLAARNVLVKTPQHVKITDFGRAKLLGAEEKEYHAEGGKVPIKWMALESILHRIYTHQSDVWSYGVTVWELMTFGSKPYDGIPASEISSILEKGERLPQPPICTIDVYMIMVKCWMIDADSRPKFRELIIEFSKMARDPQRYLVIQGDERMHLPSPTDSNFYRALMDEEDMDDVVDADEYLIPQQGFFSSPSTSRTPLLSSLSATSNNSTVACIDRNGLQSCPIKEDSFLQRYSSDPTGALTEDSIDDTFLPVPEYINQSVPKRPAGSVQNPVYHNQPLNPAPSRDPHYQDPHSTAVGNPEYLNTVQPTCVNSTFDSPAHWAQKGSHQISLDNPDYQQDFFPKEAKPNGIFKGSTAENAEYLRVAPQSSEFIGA
Method: 4) Measurement of inhibitory activity against EGFR (L858R/C797S) kinase
The compounds of the present invention were measured for their inhibitory activity aeainst EGFR (L858R/C797S) kinase activity.
The materials, measurement procedures and data analysis method used in this test are stibstantially the same as those shown in the section “Measurement of inhibitory activity against EGFR (d746-750/C797S) kinase.” However, among the materials, the kinase protein used was a purified recombinant human EGFR (C797S/L858R) protein purchased from SignalChem. In the measurement procedures, the final concentration of ATP was set to 4 μM, and the incubation time for kinase reaction was set to 90 minutes. Finally, data analysis was conducted determine the IC50 value (nM) of each compound against EGFR (L858R/C797S).
In accordance with the same procedures as shown in 4) in Test Example 1, the compounds of the present invention were measured for their inhibitor activity against. EGFR (L858R/C797S) kinase activity.

human EGFR (WT) = target: T5, human EGFR (WT) (Homo sapiens, UniProt P00533); assay: Inhibitory activity against EGFR (WT) kinase; conditions: Test Example 1, Table 6; ATP 1.5 μM
T5 construct: purchased Carna Biosciences Inc., Japan
T5 sequence (P00533 25-1210): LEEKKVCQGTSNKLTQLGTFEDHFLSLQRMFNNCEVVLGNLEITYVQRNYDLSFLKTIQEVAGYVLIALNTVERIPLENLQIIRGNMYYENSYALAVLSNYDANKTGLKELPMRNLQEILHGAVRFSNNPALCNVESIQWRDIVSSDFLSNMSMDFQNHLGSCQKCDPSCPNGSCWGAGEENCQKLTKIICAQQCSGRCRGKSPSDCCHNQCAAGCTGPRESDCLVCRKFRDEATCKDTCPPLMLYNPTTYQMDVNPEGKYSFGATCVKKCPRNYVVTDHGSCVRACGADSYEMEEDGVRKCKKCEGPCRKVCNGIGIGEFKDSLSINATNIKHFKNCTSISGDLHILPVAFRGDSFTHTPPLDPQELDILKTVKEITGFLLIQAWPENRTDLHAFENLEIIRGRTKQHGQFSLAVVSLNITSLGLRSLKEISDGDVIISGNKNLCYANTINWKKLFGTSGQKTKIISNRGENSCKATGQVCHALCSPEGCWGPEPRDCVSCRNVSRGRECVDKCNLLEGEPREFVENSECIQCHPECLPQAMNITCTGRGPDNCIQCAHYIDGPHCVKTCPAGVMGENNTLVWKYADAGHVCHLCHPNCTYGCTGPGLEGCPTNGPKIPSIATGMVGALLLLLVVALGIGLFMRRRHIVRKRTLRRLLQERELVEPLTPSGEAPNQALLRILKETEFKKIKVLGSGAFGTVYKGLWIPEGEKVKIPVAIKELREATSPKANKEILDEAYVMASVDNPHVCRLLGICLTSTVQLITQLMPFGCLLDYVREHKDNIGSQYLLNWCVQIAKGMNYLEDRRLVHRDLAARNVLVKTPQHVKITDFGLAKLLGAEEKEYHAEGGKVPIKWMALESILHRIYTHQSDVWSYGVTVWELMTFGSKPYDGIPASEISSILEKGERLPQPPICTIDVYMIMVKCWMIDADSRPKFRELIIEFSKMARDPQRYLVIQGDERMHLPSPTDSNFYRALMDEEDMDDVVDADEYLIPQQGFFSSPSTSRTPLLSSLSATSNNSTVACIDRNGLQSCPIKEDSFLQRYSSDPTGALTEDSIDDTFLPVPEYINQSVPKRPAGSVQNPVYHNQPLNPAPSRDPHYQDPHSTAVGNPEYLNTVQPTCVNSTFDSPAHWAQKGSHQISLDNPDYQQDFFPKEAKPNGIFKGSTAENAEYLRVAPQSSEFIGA
Method: The compounds of the present invention were measured for their inhibitory activity nainst EGFR (WT) kinase activity.
The materials, measurement procedures and data analysis method used in this test. are substantially the same as those shown in the section “Measurement of inhibitory activity against EGFR (d746-750/T790M/C797S) kinase.” However, among the materials, the kinase protein used was a purified recombinant human EGFR (WT) purchased from Carna Biosciences Inc., Japan. In the measurement procedures, the final concentration of ATP was set to 1.5 μM. Finally, data analysis was conducted to determine the IC50 value (nM) of each compound against EGFR (WT).
In accordance with the same procedures as shown in 5) in Test Example 1, the compounds of the present invention were measured for their inhibitory activity against. EGFR (WT) kinase activity.

T1 sequence (P00533 with tags, fused parts or gaps DEL746-750/T790M/C797S): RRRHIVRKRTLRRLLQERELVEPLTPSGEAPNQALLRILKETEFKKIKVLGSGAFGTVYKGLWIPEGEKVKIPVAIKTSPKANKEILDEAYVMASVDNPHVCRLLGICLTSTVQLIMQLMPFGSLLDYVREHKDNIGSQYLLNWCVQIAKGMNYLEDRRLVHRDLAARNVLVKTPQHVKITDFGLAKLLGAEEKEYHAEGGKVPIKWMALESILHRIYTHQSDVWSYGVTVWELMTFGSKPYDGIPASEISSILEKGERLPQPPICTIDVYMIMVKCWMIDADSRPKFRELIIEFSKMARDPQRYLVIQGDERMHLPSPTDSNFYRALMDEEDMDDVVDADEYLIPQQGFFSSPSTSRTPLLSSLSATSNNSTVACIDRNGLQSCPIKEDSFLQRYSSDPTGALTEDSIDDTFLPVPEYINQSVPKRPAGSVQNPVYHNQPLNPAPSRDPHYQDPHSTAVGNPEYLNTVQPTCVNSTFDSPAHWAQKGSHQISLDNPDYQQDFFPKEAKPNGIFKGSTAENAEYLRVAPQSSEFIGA

SMILES	IC50 [1]	IC50 [2]	IC50 [3]	IC50 (human EGFR (L858R/C797S))	IC50 (human EGFR (WT))
C#Cc1c(-c2cnc3ccccc3c2)c2c(N)ncnc2n1C12CCC(NC(=O)COC)(CC1)C2 [Example 28, N-(4-(4-Amino-6-ethynyl-5-(quinolin-3-yl)-7H-pyrrolo[2,3-d]pyrimidin-7-yl)bicyclo-[2.2.1]heptan-1-yl)-2-methoxyacetamide]	< 0.3 nM	1.1 nM	0.89 nM	1.7 nM	3.2 nM
C#Cc1c(-c2cnc3ccccc3c2)c2c(N)ncnc2n1C12CCC(NC(=O)c3cc(CF)nn3C)(CC1)C2 [Example 29, N-(4-(4-Amino-6-ethynyl-5-(quinolin-3-yl)-7H-pyrrolo[2,3-d]pyrimidin-7-yl)bicyclo-[2.2.1]heptan-1-yl)-3-(fluoromethyl)-1-methyl-1H-pyrazole-5-carboxamide]	< 0.3 nM	0.31 nM	0.32 nM	0.39 nM	0.62 nM
C#Cc1c(-c2cnc3ccccc3c2)c2c(N)ncnc2n1C12CCC(NC(=O)c3cc(S(C)(=O)=O)ccn3)(CC1)C2 [Example 30, N-(4-(4-Amino-6-ethynyl-5-(quinolin-3-yl)-7H-pyrrolo[2,3-d]pyrimidin-7-yl)bicyclo-[2.2.1]heptan-1-yl)-4-(methylsulfonyl)picolinamide]	< 0.3 nM	0.33 nM	0.64 nM	1.2 nM	1.9 nM
C#Cc1c(-c2cnc3ccccc3c2)c2c(N)ncnc2n1C12CCC(NC(=O)c3cnccc3OC)(CC1)C2 [Example 31, N-(4-(4-Amino-6-ethynyl-5-(quinolin-3-yl)-7H-pyrrolo[2,3-d]pyrimidin-7-yl)bicyclo-[2.2.1]heptan-1-yl)-4-methoxynicotinamide]	< 0.3 nM	0.52 nM	0.49 nM	0.62 nM	1.5 nM
C#Cc1c(-c2cnc3ccccc3c2)c2c(N)ncnc2n1C12CCC(NC(=O)c3cncc(C#N)c3)(CC1)C2 [Example 34, N-(4-(4-Amino-6-ethynyl-5-(quinolin-3-yl)-7H-pyrrolo[2,3-d]pyrimidin-7-yl)-bicyclo-[2.2.1]heptan-1-yl)-5-cyanonicotinamide]	< 0.3 nM	< 0.3 nM	0.46 nM	0.45 nM	0.84 nM

Second part, the molecule after the results:

IC50 [1]	IC50 [2]	IC50 [3]	IC50 (human EGFR (L858R/C797S))	IC50 (human EGFR (WT))	SMILES
< 0.3 nM	0.66 nM	0.56 nM	0.97 nM	1.6 nM	C#Cc1c(-c2cnc3ccccc3c2)c2c(N)ncnc2n1C12CCC(NC(=O)c3cncc(OCF)n3)(CC1)C2 [Example 38, N-(4-(4-Amino-6-ethynyl-5-(quinolin-3-yl)-7H-pyrrolo[2,3-d]pyrimidin-7-yl)-bicyclo-[2.2.1]heptan-1-yl)-6-(fluoromethoxy)pyrazine-2-carboxamide]
< 0.3 nM	< 0.3 nM	0.48 nM	0.43 nM	0.31 nM	C#Cc1c(-c2cnc3ccccc3c2)c2c(N)ncnc2n1C12CCC(NC(=O)c3nccn4ccnc34)(CC1)C2 [Example 42]
< 0.3 nM	0.68 nM	0.97 nM	2 nM	1.2 nM	C#Cc1c(-c2cnc3ccccc3c2)c2c(N)ncnc2n1C12CCC(NC(=O)NCC)(CC1)C2 [Example 50]
< 0.3 nM	0.34 nM	0.83 nM	0.99 nM	0.94 nM	C#Cc1c(-c2cnc3ccccc3c2)c2c(N)ncnc2n1C12CCC(NC(=O)c3ncccn3)(CC1)C2 [Example 51]
< 0.3 nM	0.6 nM	1.5 nM	2.6 nM	0.88 nM	C#Cc1c(-c2cnc3ccccc3c2)c2c(N)ncnc2n1C12CCC(NC(=S)NCC)(CC1)C2 [Example 52]
< 0.3 nM	1.5 nM	2.2 nM	3.4 nM	3.9 nM	C#Cc1c(-c2cnc3ccccc3c2)c2c(N)ncnc2n1C12CCC(N(C)C(=O)c3ncco3)(CC1)C2 [Example 58, N-[4-(4-Amino-6-ethynyl-5-quinolin-3-ylpyrrolo[2,3-d]pyrimidin-7-yl)-1-bicyclo-[2.2.1]heptan-1-yl]-N-methyloxazole-2-carboxamide]
